The results in this text go back to the METLIN SMRT retention time set (Domingo-Almenara et al. 2019).

The data set can be described thus: gradient 5% acetonitrile 3 min, to 50% in 2 min, to 85% in 15 min, held 3 min, 100 µL/min. The note with it: column: Zorbax Extend-C18 2.1 x 50 mm; eluents: water / acetonitrile, 0.1% formic acid. In a few lines: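 Retention times come from adduct peaks that were picked computationally and then checked by hand. The standards, pure and pooled in mixtures of ~100 molecules, were run on a Zorbax Extend-C18 column (2.1 × 50 mm, 1.8 μm) at 100 μL/min with water and acetonitrile, each with 0.1% formic acid. Detection was by quadrupole time-of-flight mass spectrometry in positive and negative ionization mode, with a dead volume of 40 μL and a dwell volume of 900 μL.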
In the case of `C[C@@H]1C/C=C/C=C/C=C/C=C/[C@H](O[C@@H]2O[C@H](C)[C@@H](O)[C@H](N)[C@@H]2O)C[C@@H]2O[C@](O)(C[C@@H](O)C[C@H]3O[C@@H]3/C=C/C(=O)O1)C[C@H](O)[C@H]2C(=O)O`, the RP-LC retention time is 686 s.

`COc1ccc(C(C)NC(=O)C2=C3CCCN3c3ccc(F)cc3S2(=O)=O)cc1OC` (centres undefined): the RP-LC retention time was 821 s.

On to `CCOc1ccc(NC(=O)Nc2nccn(-c3ccc(F)cc3)c2=O)cc1`, for which the RP-LC retention time amounted to 939 s.

The compound `Cc1cc(Cl)ccc1S(=O)(=O)N1CCC(OC2CCN(CC3CC3)C2=O)CC1` (centres undefined) displayed an RP-LC retention time of 975 s.

As to `COc1cccc(Cc2nc(-c3ccc4c(c3)nc(C)c(=O)n4C)no2)c1`, the RP-LC retention time is 899 s.

Regarding `N#Cc1ccc(S(=O)(=O)NC2CCc3nn(CC4CC4)c(=O)n3CC2)cc1` (centres undefined), the RP-LC retention time was found to be 616 s.

Regarding `Nc1nc(N)c2cc(Sc3cccc(C(F)(F)F)c3)ccc2n1`, the RP-LC retention time is 686 s.

`Nc1cc(C2CCN(S(=O)(=O)c3ccc(F)cc3F)CC2)no1` displayed an RP-LC retention time of 780 s.

Regarding `COC1CCOC2(CCN(C(=O)c3ccco3)CC2)C1` (centres undefined), the RP-LC retention time worked out at 645 s.

In turn, `CNC(=O)[C@@H]1CN(S(=O)(=O)C(C)C)C[C@H]1c1n[nH]c(C)n1` gave an RP-LC retention time of 570 s.

`Cc1ccc2[nH]c(=O)c(CCC(=O)NCCN3CCOCC3)cc2c1` showed an RP-LC retention time of 577 s.

For `CCOc1ccccc1-c1nn2c(-c3cccnc3)nnc2s1`, the RP-LC retention time stood at 1040 s.

Turning to `CCOC(=O)CNC(=O)N1CCN(Cc2nc3cc(Cl)ccc3o2)CC1`, the RP-LC retention time came to 644 s.

As for `COc1ccccc1C(=O)NCCc1c[nH]c2ccc(Cl)cc12`, the RP-LC retention time is 640 s.

Compound `O=C(O)c1cc(-c2ccccn2)nc2ccc(Br)cc12` returned an RP-LC retention time of 889 s.

In turn, `O=C(Nc1ccccc1)N1CCCC(c2nnnn2-c2ccccc2)C1` (centres undefined) came in with an RP-LC retention time of 820 s.

The compound `Cc1nnc(-c2ccc3ccn(CC(=O)Nc4ccc(C)c(C)c4)c3c2)o1` had an RP-LC retention time of 882 s.

`Cc1nc2cc(-c3noc(-c4ccc(C(F)(F)F)cc4)n3)ccc2o1` registered an RP-LC retention time of 1210 s.

The compound `O=C(Nc1nccs1)C1CCN(C(=O)c2ccc[nH]c2=O)CC1` had an RP-LC retention time of 558 s.

In the case of `CC1CCCN(CC2CCN(S(=O)(=O)Cc3ccccc3Cl)CC2)C1` (centres undefined), the RP-LC retention time amounted to 662 s.

`COc1ccc(NC(=O)C2CCCN(S(=O)(=O)c3c[nH]c(C(=O)N4CCCC4)c3)C2)cc1` (centres undefined) gave an RP-LC retention time of 732 s.

`O=C(NCc1cccs1)C1CCN(C(=O)c2ncn3c2COC(c2ccccc2)C3)CC1` (centres undefined) yielded an RP-LC retention time of 725 s.

For the compound `COc1ccc(-c2noc(-c3nn(-c4cccc(F)c4)ccc3=O)n2)cc1OC`, the RP-LC retention time amounted to 804 s.

As to `CCOC(=O)c1c(C)[nH]c(C(=O)N2CCCC(C(=O)NCc3ccc(OC(C)C)cc3)C2)c1C` (centres undefined), the RP-LC retention time amounted to 930 s.

With `CC1CC(=O)N(CC(=O)Nc2cccc([N+](=O)[O-])c2)c2ccccc2S1` (centres undefined), the RP-LC retention time was 843 s.

With `COc1ccc2[nH]cc(CCNC(=O)c3ccc(NC(=O)C4=CSCCO4)cc3)c2c1`, the RP-LC retention time came out at 800 s.

In turn, `CCCCn1cnc2c(-c3ccccc3)cn(CC(=O)Nc3ccccc3)c2c1=O` returned an RP-LC retention time of 1030 s.

As to `O=C(Nc1c(Cl)cncc1Cl)c1ccc(OC(F)F)c(OCC2CC2)c1`, the RP-LC retention time was determined as 1020 s.

Take `O=C(NCc1ccc(Br)cc1)C1CCCN(c2ncc(-c3ccc(F)cc3)cn2)C1` (centres undefined): the RP-LC retention time was determined as 1120 s.

Take `c1ccc(OCc2nc(-c3cccc(-c4csc(C5CC5)n4)c3)no2)cc1`: the RP-LC retention time is 1330 s.

Consider `CCCNC(=O)N1CCCC1c1nc(-c2cccc(C)c2)no1` (centres undefined), for which the RP-LC retention time was found to be 826 s.

Compound `COc1ccc(-c2nc(-c3nnn(-c4ccc(F)cc4)c3C)no2)cc1OC` gave an RP-LC retention time of 917 s.

In turn, `CCn1ccc(C(=O)N2CCn3c(nnc3-c3ccccc3)C2)n1` gave an RP-LC retention time of 604 s.

`COCCNC(=O)Cn1c(=O)n(-c2ccc(C)cc2)c2ncccc21` came in with an RP-LC retention time of 656 s.

On to `Cc1ccc(C(=O)Nc2ccc3c(c2)CCC(=O)N3)s1`, for which the RP-LC retention time was determined as 680 s.

For the compound `CCN1CCN(CCNC(=O)c2sc3ncccc3c2-n2c(C)ccc2C)CC1`, the RP-LC retention time worked out at 574 s.

Compound `Cn1c(=O)c2nc(S(=O)(=O)CCC(=O)Nc3cc(F)ccc3Cl)n(C)c2n(C)c1=O` gave an RP-LC retention time of 778 s.

`Cc1nc(-n2cccc2)sc1C(=O)NCCn1nc(-c2ccco2)ccc1=O` showed an RP-LC retention time of 710 s.

Regarding `O=C(Nc1nnc(C2CCCO2)o1)c1ccc([N+](=O)[O-])s1` (centres undefined), the RP-LC retention time amounted to 685 s.

For `CCCCN(C)c1ccc(NC(=O)c2cccs2)cc1C(=O)O`, the RP-LC retention time came to 623 s.

Take `CCCC(NC(=O)Cc1ccccc1C)C(=O)Nc1nc2ccccc2[nH]1` (centres undefined): the RP-LC retention time came out at 704 s.

The compound `Cc1noc([C@@H]2CN(Cc3cn[nH]c3-c3ccccc3)C[C@H]2CO)n1` had an RP-LC retention time of 582 s.

In the case of `O=c1c2scc(-c3ccc(Br)cc3)c2ncn1Cc1ccc(F)cc1`, the RP-LC retention time was 1180 s.

`CCOc1ccc(NC(=O)Cn2c(CC)nc3cc4c(cc32)OCCO4)cc1`: the RP-LC retention time amounted to 670 s.

For `CN(C(=O)c1cc2c(=O)n(C)c(=O)n(C)c2s1)c1cccc(Cl)c1`, the RP-LC retention time was 827 s.

`O=C(N[C@@H]1CN(C2CCOCC2)C[C@H]1CO)c1ccc2c(c1)OCO2` yielded an RP-LC retention time of 566 s.

`Cc1cc(Nc2nc3ccncc3n(Cc3ccccc3)c2=O)ccc1Cl` gave an RP-LC retention time of 747 s.

`Cc1cc(C2CCCN2C(=O)c2ccc(C)s2)no1` (centres undefined): the RP-LC retention time was 770 s.

`CCOCCCNC(=O)c1c2c(cn(-c3ccc(Cl)cc3)c1=O)C(=O)CC(C)(C)C2`: the RP-LC retention time came to 931 s.

Regarding `O=C(NC1CCCCC1)c1ccc2c(c1)N(C(=O)c1ccc(F)cc1)CC2`, the RP-LC retention time was 944 s.

Take `CSc1ccc(-c2nc3cnccn3c2Nc2ccccc2)cc1`: the RP-LC retention time worked out at 930 s.

`O=C(NCc1ccccc1)N1CCN(Cc2nc3ccc(Cl)cc3o2)CC1` came in with an RP-LC retention time of 723 s.

On to `CN(C)S(=O)(=O)N(CC(=O)Nc1ccc(F)c(Cl)c1)c1ccccc1`, for which the RP-LC retention time was 986 s.

The compound `COc1ccc(C(C)NC(=O)c2nc(N(C)C)c3c(C)cc(C)nc3n2)cc1` (centres undefined) returned an RP-LC retention time of 658 s.

Turning to `CCN(CC)S(=O)(=O)N1CCCC(C(=O)NCCc2ccc(Cl)cc2)C1` (centres undefined), the RP-LC retention time was determined as 945 s.

`CC(=O)N1CCC(C(=O)Nc2ccsc2-c2nc(-c3ccccc3)no2)CC1` showed an RP-LC retention time of 980 s.

Take `O=C(NCc1ccccn1)c1cc(-c2cccnc2)nc2ccc(Br)cc12`: the RP-LC retention time was 898 s.

For the compound `CCN1C(=O)COc2ccc(-c3noc(-c4ccc(Br)cc4)n3)cc21`, the RP-LC retention time was determined as 1240 s.

`CCC(=O)Nc1nc(-c2ccc3c(c2)N(C)C(=O)CO3)cs1` returned an RP-LC retention time of 752 s.

The compound `O=C1NC2(CCN(C(=O)c3ccccc3)CC2)N=C1c1cccc(F)c1` displayed an RP-LC retention time of 748 s.

`COc1ccc(C)cc1NC(=O)C(=O)c1ccc[nH]1` came in with an RP-LC retention time of 982 s.

Compound `O=C(CCc1c(-c2ccccc2)nc2ccccn12)NCc1ccccc1F` had an RP-LC retention time of 652 s.

As to `CCOc1ccccc1NC(=O)c1cn(C)c2ncccc12`, the RP-LC retention time came out at 927 s.

The compound `CCc1nc2ccc(-c3noc(-c4ccc(NC(C)=O)cc4)n3)cc2n1CC` showed an RP-LC retention time of 630 s.

In turn, `O=C1CCCc2c1cc(C(=O)NCCc1ccco1)c(=O)n2-c1ccc(F)cc1` registered an RP-LC retention time of 834 s.

Turning to `CCOc1cccc(-c2noc(Cn3c(=O)n(Cc4cccc(OC)c4)c(=O)c4sccc43)n2)c1`, the RP-LC retention time was 1150 s.

In turn, `COc1cccc(-c2noc(C3CC(=O)N(c4ccc(F)cc4)C3)n2)c1OC` (centres undefined) returned an RP-LC retention time of 885 s.

On to `CC(C)CCNC(=O)C1CCCN(c2nccn3nc(-c4ccccc4Cl)cc23)C1` (centres undefined), for which the RP-LC retention time amounted to 969 s.

`COc1cc(=O)c(C(=O)Nc2cccc(SC)c2)nn1-c1cccc(F)c1` registered an RP-LC retention time of 805 s.

Regarding `CCN1c2ccccc2C(=O)NC12CCN(C(=O)NCc1cccc(F)c1)CC2`, the RP-LC retention time amounted to 740 s.

The compound `COc1ccc(NC(=O)c2cc(C(C)C)n3nccc3n2)cc1` yielded an RP-LC retention time of 1040 s.

`CCN(CC)C(=O)C1CCN(S(=O)(=O)Cc2ccccc2)CC1` returned an RP-LC retention time of 759 s.

With `Cc1csc(-c2cc(S(=O)(=O)NCc3ccc(N(C)C)cc3)c(C)s2)n1`, the RP-LC retention time came out at 763 s.

Compound `Cc1cc(N2CCN(C(=O)c3cccc(F)c3)CC2)nc(N2CCCCC2)n1` gave an RP-LC retention time of 670 s.
